Assay results: US6506708B1, “3-(heterocyclyl)-benzoylpyrazole-derivatives” (BASF Aktiengesellschaft, priority 1998, dated 2003)

Experiments:
[1] = system: lamb's-quarters; test: greenhouse post-emergence herbicidal test; type: in vivo, Chenopodium album; conditions: application rates of 0.25 or 0.125 kg/ha
From the text: (§1) The seeds of the test plants were sown separately for each species. For the post-emergence treatment, the test plants were first grown to a height of 3 to 15 cm, depending on the plant habit, and only then treated with the active compounds which had been suspended or emulsified in water. The test plants were for this purpose either sown directly and grown in the same containers, or they were first grown separately as seedlings and transplanted into the test containers a few days prior to treatment. The application rate for the post-emergence treatment was 0.25, 0.125 or 0.0625 kg of a.s. (active substance)/ha. Depending on the species, the plants were kept at 10-25° C. or […] The test period extended over 2 to 4 weeks. During this time, the plants were tended, and their response to the individual treatments was evaluated. The evaluation was carried out using a scale from 0 to 100. 100 means no emergence of the plants, or complete destruction of at least the aerial parts and 0 means no damage, or normal course of growth. The plants used in the greenhouse experiments were of the following species: [table]

[2] = system: barnyard grass; test: greenhouse post-emergence herbicidal test; type: in vivo, Echinochloa crus-galli; conditions: application rates of 0.25 or 0.125 kg/ha
From the text: as §1

[3] = system: green foxtail; test: greenhouse post-emergence herbicidal test; type: in vivo, Setaria eiridis; conditions: application rates of 0.25 or 0.125 kg/ha
From the text: as §1

[4] = system: black nightshade; test: greenhouse post-emergence herbicidal test; type: in vivo, Solanum nigrum; conditions: application rates of 0.25 or 0.125 kg/ha
From the text: as §1

[5] = system: lady's-thumb; test: greenhouse post-emergence herbicidal test; type: in vivo, Polygonum persicaria; conditions: application rates of 0.25 or 0.125 kg/ha
From the text: as §1

| melting point | Structure (SMILES) | further results |
| --- | --- | --- |
| 150 to 155 °C | CC(C)C(C)n1ncc(C(=O)c2ccc(S(C)(=O)=O)c(C3=NOCC3)c2Cl)c1O (stereo not drawn) [Compound 2.9] |  |
| 200 to 205 °C | CC(C)C(C(C)C)n1ncc(C(=O)c2ccc(S(C)(=O)=O)c(C3=NOCC3)c2Cl)c1O [Compound 2.15] |  |
| 65 to 70 °C | COc1c(C(=O)c2ccc(S(C)(=O)=O)c(C3=NOCC3)c2Cl)cnn1C(C(C)C)C(C)C [Compound 2.16] |  |

The next lines start with the compound.

| Structure (SMILES) | melting point | further results |
| --- | --- | --- |
| CC(C)(C)n1ncc(C(=O)c2ccc(S(C)(=O)=O)c(C3=NOCC3)c2Cl)c1O [Compound 2.1, 4-[2-Chloro-3-(4,5-dihydroisoxazol-3-yl)-4-methylsulfonylbenzoyl]-5-hydroxy-1-(1,1-dimethyl-1-ethyl)-1H-pyrazole] | 198 to 200 °C |  |
| CC(C)n1ncc(C(=O)c2ccc(S(C)(=O)=O)c(C3=NOCC3)c2Cl)c1O [Compound 2.2] | 210 to 215 °C | post-emergence herbicidal action against lamb's-quarters [1]: very good post-emergence action; post-emergence herbicidal action against barnyard grass [2]: very good post-emergence action; post-emergence herbicidal action against green foxtail [3]: very good post-emergence action; post-emergence herbicidal action against black nightshade [4]: very good post-emergence action; post-emergence herbicidal action against lady's-thumb [5]: very good post-emergence action |
| CC(C)Oc1c(C(=O)c2ccc(S(C)(=O)=O)c(C3=NOCC3)c2Cl)cnn1C(C)C [Compound 2.3] | 175 to 180 °C |  |
| CCOc1c(C(=O)c2ccc(S(C)(=O)=O)c(C3=NOCC3)c2Cl)cnn1C(C)C [Compound 2.4] | 150 to 155 °C |  |
| COc1c(C(=O)c2ccc(S(C)(=O)=O)c(C3=NOCC3)c2Cl)cnn1C(C)C [Compound 2.5] | 185 to 190 °C |  |
| CC(C)Oc1c(C(=O)c2ccc(S(C)(=O)=O)c(C3=NOCC3)c2Cl)cnn1C(C)C(C)C (stereo not drawn) [Compound 2.10] | 125 to 130 °C |  |
| COc1c(C(=O)c2cnn(C(C)C)c2O)ccc(S(C)(=O)=O)c1C1=NOCC1 [Compound 2.13] | 154 to 156 °C |  |
